In ChEMBL document CHEMBL1201862, “PubChem BioAssay data set” (2004):
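Five concentrations, 48 hours, 96-well plates. Here, GI50 denotes the concentration required for 50% inhibition of growth.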 Active and inactive are the calls of the source. Cut-off read from the data, not from the text of the source: active = GI50 up to about 1.1 µM and inactive = higher.

What was measured:
Assay in all cases: NCI tumour cell line growth inhibition, 48 h
DMS-114 = test system: DMS-114
TK-10 = test system: TK-10
HOP-18 = test system: HOP-18
LXFL 529 = test system: LXFL 529
BT-549 = test system: BT-549
RXF 631 = test system: RXF 631
786-0 = test system: 786-0
MDA-N = test system: MDA-N
DU-145 = test system: DU-145

SMILES | GI50 (DMS-114) | GI50 (TK-10) | GI50 (HOP-18) | GI50 (LXFL 529) | GI50 (BT-549) | GI50 (RXF 631) | GI50 (786-0) | GI50 (MDA-N) | GI50 (DU-145)
CC(C)=CCC/C(C)=C/C=C/C(C)=C/C1C[C@@]2(C(O)O1)[C@H](CCCO)/C(=C(/C)C=O)CC[C@]2(C)O (stereo partly drawn) | 13.3 µM (inactive) | 25.5 µM (inactive) | 19.1 µM (inactive) | – | – | – | – | – | –
CC1CC[P+](c2ccccc2)(c2ccccc2)c2c1ccc1ccccc21 (stereo not drawn) | – | – | 2.52 µM (inactive) | 0.83 µM (active) | 0.764 µM (active) | – | – | – | –
O=C1CCC23CC(C=CC=C12)n1c(=O)n(-c2ccccc2)c(=O)n13 (stereo not drawn) | 37.3 µM (inactive) | – | > 100 µM (inactive) | – | – | – | – | – | –
CCCCCCCCCCCCCC(=O)OC1C(O)C(CO)OC(OC)C1NC(=O)N(CCCl)N=O (stereo not drawn) | – | > 100 µM (inactive) | > 100 µM (inactive) | > 100 µM (inactive) | – | – | – | – | –
O=c1cccccc1NCCCCCCCCNc1cccccc1=O | 1.77 µM (inactive) | – | – | 47.9 µM (inactive) | – | 1.74 µM (inactive) | > 100 µM (inactive) | – | –
COc1cc(/C=C2\CCC(C)/C(=C\c3cc(OC)c(OC)c(OC)c3)C2=O)cc(OC)c1OC (stereo not drawn) | – | 2.63 µM (inactive) | – | – | 1.02 µM (active) | – | 3.75 µM (inactive) | 2.96 µM (inactive) | 7.66 µM (inactive)
N=S(=O)(c1ccccc1)c1ccccc1[N+](=O)[O-] (stereo not drawn) | – | > 100 µM (inactive) | > 100 µM (inactive) | > 100 µM (inactive) | – | > 100 µM (inactive) | > 100 µM (inactive) | – | –
CNC(=S)Nc1sc2c(c1C#N)CCCC2 | – | > 75 µM (inactive) | – | – | > 75 µM (inactive) | – | > 75 µM (inactive) | > 75 µM (inactive) | > 75 µM (inactive)
CCCCN(CCCC)CC(=O)c1ccc2cc(Cl)c3ccccc3c2c1 | – | 50 µM (inactive) | – | – | 19.1 µM (inactive) | – | 57.4 µM (inactive) | – | > 100 µM (inactive)
CN1CN(c2ccccc2)C2(CCNCC2)C1=O | – | > 100 µM (inactive) | – | – | > 100 µM (inactive) | – | > 100 µM (inactive) | > 100 µM (inactive) | > 100 µM (inactive)
Cc1cc2c(cc1C)[n+]([O-])c(C#N)c(Cl)[n+]2[O-] | – | 14.4 µM (inactive) | – | – | 15.6 µM (inactive) | – | – | 17.5 µM (inactive) | 14.9 µM (inactive)
COc1ccccc1/C=C(\C#N)c1ccccc1 | 16.5 µM (inactive) | 40.7 µM (inactive) | 38.5 µM (inactive) | 36.1 µM (inactive) | – | – | 20 µM (inactive) | – | –
C1CSCCSCSCCS1 | – | > 100 µM (inactive) | – | – | > 100 µM (inactive) | – | – | > 100 µM (inactive) | > 100 µM (inactive)
Cn1c(=O)c(-c2ccccc2)c(N=[N+]=[N-])c2ccccc21 | – | > 100 µM (inactive) | – | – | 44.2 µM (inactive) | – | – | 72.8 µM (inactive) | > 100 µM (inactive)
CCCCNC(=O)N/C=C1\C(=O)Oc2ccccc2C1=O | 28.3 µM (inactive) | 79.4 µM (inactive) | – | 47.8 µM (inactive) | – | – | – | – | –
c1cncc(O[Si](Oc2cccnc2)(Oc2cccnc2)Oc2cccnc2)c1 | > 100 µM (inactive) | > 100 µM (inactive) | > 100 µM (inactive) | – | – | > 100 µM (inactive) | – | – | –
C[C@@H]1CC[C@H]2[C@H]1[C@H]1[C@@H](CC[C@]2(C)N=C=S)C1(C)C | – | 41.3 µM (inactive) | – | – | 18.7 µM (inactive) | – | – | 1.96 µM (inactive) | 23.4 µM (inactive)
COc1ccc(-c2nc3ccc([N+](=O)[O-])cc3c(=O)[nH]2)cc1 | 33 µM (inactive) | – | > 62.4 µM (inactive) | – | – | – | – | – | –
C=CCOC(=O)Cn1ccc(=O)[nH]c1=O | – | > 100 µM (inactive) | – | – | – | – | > 100 µM (inactive) | > 100 µM (inactive) | > 100 µM (inactive)
C#Cc1cccc(N2C(=O)c3c(c(-c4ccccc4)c(-c4ccc(Cc5ccc(-c6c(-c7ccccc7)c7c(c(-c8ccccc8)c6-c6ccccc6)C(=O)N(c6cccc(C#C)c6)C7=O)cc5)cc4)c(-c4ccccc4)c3-c3ccccc3)C2=O)c1 | 20.5 µM (inactive) | 17.9 µM (inactive) | – | 14.9 µM (inactive) | – | – | 30.2 µM (inactive) | – | –
COc1ccc(C(=O)CC(c2ccccc2)[C@H]2C(c3ccc(OC)cc3)=Nc3c(nc(SC)n(C)c3=O)NC2c2ccccc2)cc1 (stereo partly drawn) | – | > 100 µM (inactive) | – | – | > 100 µM (inactive) | – | > 100 µM (inactive) | > 100 µM (inactive) | > 100 µM (inactive)
N#Cc1ccc(C2Oc3ccc(Cl)cc3C=C2[N+](=O)[O-])cc1 (stereo not drawn) | – | 1.85 µM (inactive) | – | – | 0.581 µM (active) | – | – | 1.53 µM (inactive) | 2.34 µM (inactive)
CCOC(=O)N1C=NC23C(c4ccccc4)C(c4ccccc4)C12C(=O)N(C)C(=O)N3C (stereo not drawn) | – | > 100 µM (inactive) | 1.52 µM (inactive) | > 100 µM (inactive) | – | – | > 100 µM (inactive) | – | –
O=C(CC1(O)C(=O)Nc2c(Cl)cc(Cl)cc21)c1ccc([N+](=O)[O-])cc1 (stereo not drawn) | 23.8 µM (inactive) | > 100 µM (inactive) | > 100 µM (inactive) | 25.6 µM (inactive) | – | – | 85.3 µM (inactive) | – | –
CCC(/C=C/c1ccccc1)=N\N=C(\C=C\c1ccccc1)CC | – | > 100 µM (inactive) | – | > 100 µM (inactive) | – | – | > 100 µM (inactive) | – | –
N#C[C@H](OC1OC(COC2OC(CO)C(O)C(O)C2O)C(O)C(O)C1O)c1ccccc1 (stereo partly drawn) | > 250 µM (inactive) | – | > 250 µM (inactive) | – | – | – | – | – | –
SC1=Nc2ccccc2-c2nc(-c3ccccc3)cc(-c3ccc(Br)cc3)c2C1 | – | – | – | – | 5.53 µM (inactive) | – | – | 2.51 µM (inactive) | 3.48 µM (inactive)
